“And” between values parts separate entries of the source, which are not always exact repeats. Equal entries are not always repeated. “Also recorded” adds a separate entry of the source. Where two headings read alike, the source gives them in different places.
What was measured:
[1] = tested on: α1M236Wβ2γ2 GABAA receptor; details: α1M236W, cited from earlier work
[2] = tested on: α1β2M286Aγ2 GABAA receptor; details: β2M286A; cited from earlier work
[3] = tested on: α1β2M286Wγ2 GABAA receptor; details: β2M286W, cited from earlier work
[4] = tested on: α1M236Aβ2γ2 GABAA receptor; details: α1M236A; cited from earlier work
α1β2γ2 GABAA receptor [5] = details: cited from earlier work
[6] = tested on: α1β2N265Mγ2 GABAA receptor; details: β2N265M, cited from earlier work
[7] = tested on: β2N265M mutant α1β2γ2 GABAA receptor; test: Whole-cell patch-clamp electrophysiology, TMD site mutant incl. diazepam competition; assay type: cell-based; details: for Effect on potentiation by diazepam (competition assay): diazepam 1 µM, methaqualone 100 µM
Description: (§1) Whole-cell voltage-clamp recordings were collected on the adherent HEK293S GnTI^− that were transiently transfected with the tri-cistronic pEZT construct used for structural analyses, as well as with GFP protein in pEZT for selection. The amount of plasmids used for transfection was 0.2–0.6 μg, and transfection was performed according to Lipofectamine2000 manufacturer’s protocol. The protein was expressed for 1–3 days at 30 °C. On the day of recording, cells were plated onto a 35 mm dish and washed with bath solution (140 mM NaCl, 2.4 mM KCl, 4 mM MgCl2, 4 mM CaCl2, 10 mM HEPES pH 7.3, and 10 mM glucose). Borosilicate pipettes were pulled and polished to an initial resistance of 2–4 MΩ. Pipettes were filled with the pipette solution (100 mM CsCl, 30 mM CsF, 10 mM NaCl, 10 mM EGTA, and 20 mM HEPES pH 7.3). Cells were clamped at −75 mV. The recordings were made using an Axopatch 200B amplifier, sampled at 5 kHz, and low pass filtered at 2 kHz using Digidata 1440 A (Molecular Devices), and analyzed with pClamp 10 software (Molecular Devices). Ligand solutions were prepared in a bath solution. A gravity-driven RSC-200 rapid solution changer (Bio-Logic) was used for solution exchange.
Statistical analysis in Fig. 3 and Fig. 4 was performed using GraphPad Prism 9.2.0 software (GraphPad Software, Inc., La Jolla, CA). Data are expressed as means ± standard deviation of at least three recordings from independent cells. The two-tailed Welch’s t-test was used. A p-value of ≤0.05 was considered statistically significant.

β2/3N265M GABAA receptor = details: cited from earlier work
βM286W GABAA receptor = details: cited from earlier work
[8] = tested on: β1-containing GABAA receptors; details: cited from earlier work
[9] = target: T1, α1Y210A/γ2F77A mutant α1β2γ2 GABAA receptor (Homo sapiens, UniProt P14867+P18507+P47870, DEL344-414/DEL362-381/DEL386-444/F116A/F383Q/G341Q/I446A/K384P/R340S/S415R/S417A/V416A/Y237A/Y342P); test: Whole-cell patch-clamp electrophysiology, benzodiazepine-site double mutant; assay type: cell-based; details: 500 µM and 1000 µM methaqualone with GABA EC10, vs cryo-EM construct
T1 construct: twin-strep tag (N); expressed in transfected cells; host or cells: HEK293S GnTI- (text: HEK cells)
T1 sequence (P14867 with tags, fused parts or gaps Y237A/R340S/G341Q/Y342P/DEL344-414/S415R/V416A/S417A): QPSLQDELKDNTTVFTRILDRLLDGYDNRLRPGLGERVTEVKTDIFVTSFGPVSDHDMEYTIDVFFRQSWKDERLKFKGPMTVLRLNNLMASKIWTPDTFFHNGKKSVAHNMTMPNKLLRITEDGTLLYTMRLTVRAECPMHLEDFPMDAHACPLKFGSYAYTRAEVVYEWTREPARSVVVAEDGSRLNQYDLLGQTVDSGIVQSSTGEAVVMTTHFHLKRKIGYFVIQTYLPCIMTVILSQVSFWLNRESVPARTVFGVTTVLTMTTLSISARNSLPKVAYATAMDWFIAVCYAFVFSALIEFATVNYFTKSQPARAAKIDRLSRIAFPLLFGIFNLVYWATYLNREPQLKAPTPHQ
T1 sequence (P47870 with tags, fused parts or gaps): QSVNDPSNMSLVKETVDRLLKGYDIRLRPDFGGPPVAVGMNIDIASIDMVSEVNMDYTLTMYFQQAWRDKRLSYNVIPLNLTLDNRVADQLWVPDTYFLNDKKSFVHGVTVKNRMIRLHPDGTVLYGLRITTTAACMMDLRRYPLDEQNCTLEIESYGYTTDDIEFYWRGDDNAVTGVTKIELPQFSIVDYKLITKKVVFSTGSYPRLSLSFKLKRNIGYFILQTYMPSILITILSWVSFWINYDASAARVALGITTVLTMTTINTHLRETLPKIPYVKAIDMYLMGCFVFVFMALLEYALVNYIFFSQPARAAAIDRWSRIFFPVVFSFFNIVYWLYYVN
T1 sequence (P18507 with tags, fused parts or gaps F116A/DEL362-381/F383Q/K384P/DEL386-444/I446A): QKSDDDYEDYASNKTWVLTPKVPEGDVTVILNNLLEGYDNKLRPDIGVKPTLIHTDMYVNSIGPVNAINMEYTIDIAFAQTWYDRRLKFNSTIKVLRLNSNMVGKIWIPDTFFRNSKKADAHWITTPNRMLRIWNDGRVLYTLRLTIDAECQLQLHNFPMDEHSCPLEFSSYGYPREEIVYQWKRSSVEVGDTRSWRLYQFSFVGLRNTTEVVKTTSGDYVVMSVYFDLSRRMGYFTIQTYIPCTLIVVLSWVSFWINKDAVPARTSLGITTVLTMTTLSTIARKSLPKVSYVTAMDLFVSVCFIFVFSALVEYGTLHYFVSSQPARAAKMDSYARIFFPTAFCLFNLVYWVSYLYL
Description: as §1, with “A gravity-driven RSC-200 rapid solution changer (Bio-Logic) was used for solution exchange.” left out
Statistical analysis in Fig. 3 and Fig. 4 was performed using GraphPad Prism 9.2.0 software (GraphPad Software, Inc., La Jolla, CA). Data are expressed as means ± standard deviation of at least three recordings from independent cells. […]

[10] = tested on: α6β1S265Nδ GABAA receptor; details: β1S265N in α6β1δ, cited from earlier work
[11] = tested on: α6β2N265Sδ GABAA receptor; details: β2N265S in α6β2δ, cited from earlier work
[12] = tested on: α1H102R α1β2γ2 GABAA receptor; details: 300 µM methaqualone; cited from earlier work
α1β2γ2 GABAA receptor [13] = tested on: α1β2γ2 GABAA receptor; parameters: method as in Zhu S et al., 2018; details: ref Zhu S et al., 2018, cited from earlier work

Compound: NCCCC(=O)O [GABA, γ-aminobutyric acid]
- Effect of mutation on receptor sensitivity to GABA [1]: increases receptor sensitivity to GABA

Compound: Cc1ccc(-n2c(-c3ccccc3)nc3ccccc3c2=O)cc1 [PPTQ, 2-phenyl-3-(p-tolyl)-quinazolin-4(3H)-one]
- Effect of mutation on PAM activity [1]: PAM efficacy plummets; also recorded: decreased PAM activity
- Effect of mutation on direct activation (agonist activity) [1]: dramatically more efficacious agonists; also recorded: Pronounced increase in direct activation
- Effect of mutation on PAM activity [2]: significantly decreases its PAM efficacy; also recorded: decreased PAM activity
- Effect of mutation on direct activation (agonist activity) [2]: completely abolishes PPTQ agonist activity; also recorded: Elimination of direct activation
- Effect of mutation on PAM activity [3]: significantly decreases its PAM efficacy; also recorded: pronounced decrease in PAM activity
- Effect of mutation on direct activation (agonist activity) [3]: completely abolishes PPTQ agonist activity; also recorded: Elimination of direct activation
- Effect of mutation on PAM activity [4]: negligible effects; also recorded: No significant difference
- Effect of mutation on direct activation (agonist activity) [4]: negligible effects; also recorded: No significant difference
- Higher modulatory potency (EC50 value) than methaqualone (α1β2γ2 GABAA receptor [5]; α1β2γ2 receptor subtype): ~50 fold
- Effect of mutation on PAM activity [6]: reduces the PAM activity of methaqualone and PAM and agonist activities of PPTQ significantly; also recorded: Elimination
- Effect of mutation on direct activation (agonist activity) [6]: reduces the PAM activity of methaqualone and PAM and agonist activities of PPTQ significantly; also recorded: Elimination

Compound: CN1C(=O)CN=C(c2ccccc2)c2cc(Cl)ccc21 [diazepam]
- Relative current, GABA EC10 + DZ 1uM ([7]; N265M, relative to GABA EC10, single recordings, listed as DZ): 1.349 and 1.602 and 1.299 and 1.556

Compound: CCOC(=O)c1cncn1[C@H](C)c1ccccc1 [etomidate]
- Effect of mutation on potentiation (β2/3N265M GABAA receptor): almost entirely eliminates potentiation by etomidate
- Effect of mutation on PAM activity [1]: PAM efficacy plummets
- Effect of mutation on direct activation (agonist activity) [1]: dramatically more efficacious agonists
- Effect of mutation on PAM and agonist activities (βM286W GABAA receptor): detrimental to the PAM and agonist activities
- Effect of mutation on PAM activity [4]: increases etomidate modulatory efficacy
- Activity at receptors with serine at the β265 position [8]: remain active

Compound: Cc1ccccc1-n1c(C)nc2ccccc2c1=O [methaqualone, Methaqualone]
- Effect of mutation on PAM activity [1]: PAM efficacy plummets
- Effect of mutation on direct activation (agonist activity) [1]: dramatically more efficacious agonists
- Effect of mutation on direct activation (agonist activity) ([1]; listed as Methaqualone): Pronounced increase in direct activation
- Methaqualone-mediated modulation: effect of the two mutations [9]: affected neither
- Effect of mutation on PAM activity [3]: more subtle decrease
- Effect of mutation on PAM activity ([3]; listed as Methaqualone): Decreased PAM activity
- Effect of mutation on PAM activity [10]: from a NAM to a PAM
- Effect of mutation on PAM activity ([10]; listed as Methaqualone): Rescued PAM activity
- Effect of mutation on PAM activity [11]: from a PAM into a NAM
- Effect of mutation on PAM activity ([11]; listed as Methaqualone): Elimination of PAM activity
- Effect of α1H102R mutation on potentiation [12]: not significantly affected
- Potentiation in the presence of saturating concentrations of flumazenil (α1β2γ2 GABAA receptor [5]; 300 µM methaqualone): not significantly affected
- Shape of PAM concentration-response curve (α1β2γ2 GABAA receptor [5]; decreasing degree of potentiation above 300 µM): bell-shaped concentration-response curve
- Agonist activity (α1β2γ2 GABAA receptor [5]; very high concentrations (200–1000 µM)): minute but significant agonist activity
- Effect of β2N265M mutation on methaqualone potentiation ([7]; 100 µM methaqualone with GABA EC10): most of the methaqualone activity was lost
- Effect on receptor activation by GABA ([7]; 100 µM methaqualone, β2N265M): no measurable effect
- Effect on potentiation by diazepam (competition assay) ([7]; β2N265M): block much of the PAM activity of diazepam
- Effect on potentiation by diazepam (competition assay) ([7]; β2N265M, listed as MQ): inhibit diazepam potentiation
- Effect of mutation on PAM activity [6]: reduces the PAM activity of methaqualone and PAM and agonist activities of PPTQ significantly
- Effect of mutation on PAM activity ([6]; listed as Methaqualone): Almost eliminated PAM activity

Compound: CC(C)c1cccc(C(C)C)c1O [propofol]
- Effect of mutation on potentiation (β2/3N265M GABAA receptor): significantly reduces potentiation of propofol
- Effect of mutation on PAM and agonist activities (βM286W GABAA receptor): detrimental to the PAM and agonist activities
- Activity at receptors with serine at the β265 position [8]: remain active

Compound: Fab: Fab fragment of 1F4 monoclonal antibody against the α1 subunit, used for cryo-EM particle alignment
- Effect on flumazenil's activity or binding affinity (α1β2γ2 GABAA receptor [13]): no significant effect
- Shift of the EC50 for GABA to the left (α1β2γ2 GABAA receptor [13]; weak positive allosteric modulator): 2.5 fold

— paper PMC11187190, “Structural insights into GABAA receptor potentiation by Quaalude” (Nature Communications, 2024)
